According to patent US11938164B2, “Exosome-based cancer assays” (TRUSTEES OF BOSTON UNIVERSITY, priority 2021, dated 2024):

Tests used:
MCF-7 cells = assay: EMT/CSC gene expression (RT-PCR, PCR array, IPA) in MCF-7 cells treated with adipocyte exosomes; assay type: cell-based, human; conditions: MCF7 cells; compared to control EVs
Experimental: RNA was isolated from cells using RNeasy Plus Mini Kit (74136, Qiagen). From each sample, 1 μg of RNA was used to prepare 20 μL cDNA using QuantiTect Reverse Transcription Kit (Qiagen, 205313). Human RT2 Profiler™ PCR Array, including Epithelial to Mesenchymal Transition (EMT) (PAHS-090Z) and Cancer Stem Cell (PAHS-176ZC) arrays, were purchased from Qiagen. Each cDNA sample (102 μL comprised of 1 μg RNA) was mixed with 1,350 μL RT2 SYBR Green ROX qPCR Mastermix (Qiagen, 330522) and 1,248 μL RNAse-free water. A total volume of 2,700 μL was mixed by vortexing and transferred to a reservoir. Then, an 8 channel pipettor was used to take aliquots of reaction mix from the reservoir, to distribute 25 μL into each well of the array. PCR reactions were performed and results were analyzed using a 7500 Fast Real-Time PCR instrument.
All Ct values of the genes were normalized to the respective ACTB gene (delta Ct). […] For the control groups, delta.delta Ct was calculated using this formula: ΔΔCt=ΔCt (C1 or C2 or C3)—ΔCt (Control average). Then, fold-change was calculated using 2∧−ΔΔCt, (2 to the power of negative ΔΔCt). Next, the Z score was calculated based on this formula: Z score=(x-mean)/SD, where X is the fold-change. […]
To predict disease and function, and downstream pathways, data were analyzed through the use of Ingenuity Pathway Analysis, IPA (QIAGEN Inc.). […]

PD-L1 = assay: Flow cytometry of PD-L1 on DU145 cells; assay type: cell-based, human; conditions: MZ-1 50 nM, JQ1 400 nM
Experimental: Single-cell suspensions were washed after collection and stained in ice-cold Ca^+2/Mg^+2-free PBS with a viability dye (Zombie NIR, BioLegend) for 20 min at 4° C. in the dark. Cell suspensions were then washed twice with ice-cold flow cytometry buffer (Ca^+2/Mg^+2-free PBS, supplemented with 2% FBS and 2 mM EDTA). Cell suspensions were then stained for PD-L1 (PE-conjugated, BD Biosciences). All cell suspensions were washed twice in ice cold flow cytometry buffer before analysis. Unstained cells and single-stained controls were used to calculate flow cytometry compensation. Data acquisition (typically 1 million events) was performed on a BD LSRII instrument at the Boston University Flow Cytometry Core Facility. Data analysis was carried out using FlowJo Software (version 10.6.1, Tree Star).

4T1 cells = assay: Transwell migration assay with 4T1 cells; assay type: cell-based, murine; conditions: 50 nM MZ-1
Experimental: FIGS. 9A-9D depict EMT induction in murine 4T1 cells treated with EVs from IS vs IR murine adipocytes. Murine 3T3-L1 adipocytes were differentiated from pre-adipocyte fibroblasts as published (24), treated with 250 pM murine TNFα overnight, as specified to induce insulin resistance (9), then adipocyte conditioned media was used as the source of EVs. (FIG. 9A) 4T1 cells were treated for 3 days with EVs from IS or IR adipocytes, vs. media control EVs, then cells were fixed for immunohistochemistry. Vimentin and E-cadherin, as mesenchymal or epithelial markers respectively, were visualized by fluorophore-conjugated primary anti-mouse antibodies, with phalloidin stain for cytoskeletal structure and DAPI counterstain for DNA. Bar, 10 μm. (FIG. 9B) RT-PCR validation of two selected EMT genes, induced by EVs. (FIG. 9C) Transwell migration assay with 4T1 cells exposed to IS vs IR EVs, or IR treated with 50 nM MZ-1 (25) to inhibit BRD4 and block migration (18,24). (FIG. 9D) Quantitation of B. (n=3; ***, P<0.005).

DU145 cells = assay: RT-PCR of SNAI1 and CD274 in DU145 cells after T2D exosomes plus JQ1 or MZ-1; assay type: cell-based, human; conditions: MZ-1 50 nM, JQ1 400 nM
Experimental: (FIG. 19A) Expression of SNAI1 and CD274 genes in DU145 cells measured by RT-PCR of cellular RNA after exosome treatment. T2D exosomes (109; T2D Exo) were compared to media only control exosomes (Control), or T2D Exo+JQ1 or MZ1. (JQ1 is a pan-BET inhibitor (400 nM) and MZ-1 is a BRD4-selective degrader (50 nM)). (FIG. 19B) Expression of PD-L1 was measured by flow cytometry after treatments. One million events were analyzed by Flow-Jo and presented as overlaid histograms (control, red trace; experimental, black trace). (FIG. 19C) Flow cytometry data of FIG. 19B were quantified with PD-L1 as percent of parent population. The experiment was conducted in triplicate with differences between means represented as bar graphs. Data were analyzed by two-way ANOVA with statistical significance presented as: ****, P<0.0001 (TGFB, TGF-β positive control at 5 ng/mL for SNAI1 induction; IFNgamma, interferon-γ positive control at 5 ng/mL for CD274 induction).
Procedures were as previously described. Briefly, total RNA was extracted from tumor cells using an RNAeasy Kit (Qiagen). Reverse transcription reactions were performed with 1 μg of total RNA with the QuantiTect Reverse Transcription kit (Qiagen). Gene expression was measured using TaqMan™ master mix (Thermofisher, 4369510) and human gene probes as follows: SNAI (Hs00195591_m1), SNA2 (Hs00950344_m1), CDH1 (Hs01023895_m1), ACTB (Hs00357333_g1), CD274 (encodes PD-L1, Hs01125301_m1), CD155 (encodes PVR or TIGIT ligand, Hs00197846_m1), VIM (Hs00958111_m1), TGFB1 (Hs00998133_m1), and AHNAK (Hs01102463_m1).

BRD2, BRD3 and BRD4 = conditions: DU145 cells, cited from earlier work

| Compound | transcription of ZEB1 and SNAI2 readout genes (MCF-7 cells) | PD-L1 surface protein induced by T2D exosome treatment (PD-L1) | 4T1 migration provoked by exosomes from IR adipocytes (4T1 cells) | expression of SNAI1 induced by T2D plasma exosomes (DU145 cells) | transcription of CD274 induced by T2D plasma exosomes (DU145 cells) | elimination of BET proteins, low concentration (BRD2, BRD3 and BRD4; 50 nM) | elimination of BET proteins, high doses (BRD2, BRD3 and BRD4; 400 nM) |
| --- | --- | --- | --- | --- | --- | --- | --- |
| TGF-β | Induction | – | – | – | – | – | – |
| Cc1ncsc1-c1ccc(CNC(=O)[C@@H]2C[C@@H](O)CN2C(=O)[C@@H](NC(=O)COCCOCCOCCNC(=O)C[C@@H]2N=C(c3ccc(Cl)cc3)c3c(sc(C)c3C)-n3c(C)nnc32)C(C)(C)C)cc1 [MZ-1] | – | inhibited | effectively ablated | inhibited expression | same inhibitory effect | selective to eliminate BRD4 protein while preserving BRD2 and BRD3 | eliminate all three somatic BET proteins |
| Cc1sc2c(c1C)C(c1ccc(Cl)cc1)=N[C@@H](CC(=O)OC(C)(C)C)c1nnc(C)n1-2 [JQ1] | – | inhibited | – | not able to reduce expression below the BRD4-selective level | inhibit transcription to below baseline | – | – |
